Patent publication US10098900B2, “Pharmaceutical compositions and their use for treatment of cancer and autoimmune diseases” (ZHEJIANG DTRM BIOPHARMA CO. LTD., priority 2015, dated 2018)
Marks after values point to notes of the source that are not given here.

Columns and labels:
[1] = tested on: TMD-8 cell line; assay: Inhibition assay of tumor cell activity (cell viability), TMD-8; type: cell-based, human; conditions: individual compound; for inhibition at 0.01 µM / inhibition at 0.1 µM / inhibition at 1 µM / inhibition at 10 µM / inhibition at 100 µM: Homo sapiens, TMD8, 48 h, read-out: Inh % on TMD-8 cell line (AVG); for Inh % on TMD-8 cell line (AVG): 48 h
Description: Inhibition Assay of Tumor Cell Activity:
Tumor cells (TMD-8, DoHH2 and WSU-DLCL2) were transferred and attached to 96-well plates. After one night, blank buffer and selected concentrations (0.01 nM-100 μM) of the test compound solution were added. After 48 hours incubation, CellTiter-Go was added to lyse the cells. Recording luminescent signal and calculate the percent inhibition of cell viability

[2] = tested on: TMD-8 lymphoma xenograft; assay: Inhibition of tumor growth in vivo, TMD-8 lymphoma xenograft SCID mouse model; conditions: for Antitumor effect (%): TMD-8, Oral, BID
Description: Inhibition Study of Tumor Growth In Vivo:
SCID mice or nude mice (weighing about 18 g at the beginning of the experiment) were randomly divided into groups by the software in order to achieve close average weights between groups and control the bias within the allowable range. The mice were injected BTK cell lines (TMD-8, WSU-DLCL2 and DoHH-2) for tumor formation. Inhibitors were administered orally once or twice a day, a total of 14 days, 21 days or 28 days. Body weights and tumor volume were recorded.
Xenograft Tumor Models Inoculated with TMD-8, or DoHH2, or WSU-DLCL2 Tumor Cell Lines:
TMD-8 is a sensitive human diffuse large B-cell lymphoma cell line, and DoHH2 is a more difficult to treat human follicular lymphoma cell line, while WSU-DLCL2 is a multi-drug resistant (MDR) human non-Hodgkin's lymphoma cell line. Drug combination therapies provide better efficacies in all three tumor models than single targeted agent alone.
The TMD-8, DoHH2, WSU-DLCL2 tumor cells were maintained in vitro as a suspension culture in RPMI-1640 medium supplemented with 10% heat inactivated fetal calf serum at 37° C. in an atmosphere of 5% CO2 in air. The tumor cells were routinely subcultured twice weekly. The cells growing in an exponential growth phase were harvested and counted for tumor inoculation. Each mouse was inoculated subcutaneously at the right flank with the tumor cells (10×10^6) in 0.2 ml of PBS with Matrigel (1:1) for tumor development. The treatments were started after the average tumor size reached approximately 100-200 mm^3. Each group consisted of 6-10 tumor-bearing mice. The testing article (vehicle, compound or combination) was orally administrated to the mice according to the predetermined doses for 14-days or 21-days. Animal body weight and tumor volume were measured every 2- or 3-days throughout the treatment.

[3] = tested on: adjuvant-induced arthritis; assay: Adjuvant-induced arthritis (AA/AIA) model in female Lewis rats (paw volume, clinical score, histopathology); type: in vivo, rat; design: Pathological score (Mean ± SEM), Inflammatory cell infiltration / Pathological score (Mean ± SEM), Pannus growth / Pathological score (Mean ± SEM), Cartilage injury / Pathological score (Mean ± SEM), Bone resorption / Pathological score (Mean ± SEM), Total: scale not given here; conditions: for Paw volume (mL), Mean: 3 mg/kg BID (positive control)
Description: Adjuvant-Induced Arthritis AA Model: […] All rats except the normal group were immunized with complete Freund's adjuvant (CFA) subcutaneously at the left hind paw to induce arthritis at day 0. […] The treatments were given orally for 3 consecutive weeks. The body weight, paw volume and clinical score were monitored every other day after day 13 throughout the course of the study. At the terminal point, right hind paws were collected for histopathology analysis with H.E. staining.

[4] = tested on: collagen induced arthritis; assay: Collagen-induced arthritis (CIA) model in male DBA/1 mice (clinical score, histopathology); type: in vivo, mouse; design: Clinical Score (Mean) / Pathological score (Mean ± SEM), Inflammatory cell infiltration / Pathological score (Mean ± SEM), Pannus growth / Pathological score (Mean ± SEM), Cartilage injury / Pathological score (Mean ± SEM), Bone resorption / Pathological score (Mean ± SEM), Total: scale not given here; conditions: CIA study; for Clinical Score (Mean): Dexamethasone 0.2 mg/kg
Description: Collagen-Induced Arthritis (CIA) Model: The combination of Compounds 3 and 12 was evaluated in collagen induced arthritis (CIA) mouse model in Male DBA/1 mice. The animals were divided into 8 groups, including a normal, a vehicle, […] treatment groups: […] On the same day, immunized mice were randomly divided into 7 groups: […] The treatments were given orally for 2 consecutive weeks. Body weight and clinical score were monitored through the study (recorded three times a week started after second immunization). At the end of the study, animals were euthanized and both hind paws were collected for histopathology analysis.

[5] = Left hind paw, Dexamethasone 0.2 mg/kg QD
[6] = Right hind paw, Dexamethasone 0.2 mg/kg QD

CC1(C)CCC(CN2CCN(c3ccc(C(=O)NS(=O)(=O)c4ccc(NCC5CCOCC5)c([N+](=O)[O-])c4)c(Oc4cnc5[nH]ccc5c4)c3)CC2)=C(c2ccc(Cl)cc2)C1 [Compound 12, Venetoclax]
inhibition at 0.01 µM ([1]; 0.01 uM (10 nM)): 11.1%
inhibition at 0.1 µM ([1]; 0.1 uM (100 nM)): 18.8%
inhibition at 1 µM ([1]; 1 uM (1,000 nM)): 37.6%
Inh % on TMD-8 cell line (AVG) ([1]; 0.01 uM (10 nM)): 11.12%
Inh % on TMD-8 cell line (AVG) ([1]; 0.1 uM (100 nM)): 18.81%
Inh % on TMD-8 cell line (AVG) ([1]; 1 uM (1,000 nM)): 37.55%
Antitumor effect (%) ([2]; FIG. 12, 14 days, 5 mg/kg): 12%

[2H]/C=C\C(=O)N1CC[C@@H](n2nc(-c3ccc(Oc4c(F)c(F)cc(F)c4F)cc3F)c3c(N)ncnc32)C1 [Compound 7]
inhibition at 0.01 µM ([1]; 0.01 uM (10 nM)): 33.9%
inhibition at 0.1 µM ([1]; 0.1 uM (100 nM)): 58.7%
inhibition at 1 µM ([1]; 1 uM (1,000 nM)): 58.6%
inhibition at 10 µM [1]: 62.9%
inhibition at 100 µM [1]: 99.3%

CO[C@H]1C[C@@H]2CC[C@@H](C)[C@@](O)(O2)C(=O)C(=O)N2CCCC[C@H]2C(=O)O[C@H]([C@H](C)C[C@@H]2CC[C@@H](OCCO)[C@H](OC)C2)CC(=O)[C@H](C)/C=C(\C)[C@@H](O)[C@@H](OC)C(=O)[C@H](C)C[C@H](C)/C=C/C=C/C=C/1C [Compound 14, Everolimus]
tumor disappearance ([2]; TMD-8 mice model, text): tumor disappearance

C[C@@H]1CCN(C(=O)CC#N)C[C@@H]1N(C)c1ncnc2[nH]ccc12 [Compound 11, Tofactinib]
Paw volume (mL), Mean ([3]; Day 0): 1.00 mL
Paw volume (mL), Mean ([3]; Day 17): 1.54*** mL
Paw volume (mL), Mean ([3]; Day 26): 1.37*** mL
Paw volume (mL), Mean ([3]; Day 28): 1.33*** mL
Paw volume (mL), Mean ([3]; Day 31): 1.23*** mL
Paw volume (mL), Mean ([3]; Day 33): 1.23*** mL
Pathological score (Mean ± SEM), Bone resorption ([3]; AA study, 11, 3 mg/kg): 0.5 ± 0.22
Pathological score (Mean ± SEM), Cartilage injury ([3]; AA study, 11, 3 mg/kg): 0.2 ± 0.20
Pathological score (Mean ± SEM), Inflammatory cell infiltration ([3]; AA study, 11, 3 mg/kg): 1.9 ± 0.18
Pathological score (Mean ± SEM), Pannus growth ([3]; AA study, 11, 3 mg/kg): 0.4 ± 0.22
Pathological score (Mean ± SEM), Total ([3]; AA study, 11, 3 mg/kg): 3.0 ± 0.73
Inh % on TMD-8 cell line (AVG) ([1]; 0.01 uM (10 nM)): 6.02%
Inh % on TMD-8 cell line (AVG) ([1]; 0.1 uM (100 nM)): 1.31%
Inh % on TMD-8 cell line (AVG) ([1]; 1 uM (1,000 nM)): 6.66%

C=CC(=O)N1CCC[C@@H](n2nc(-c3ccc(Oc4ccccc4)cc3)c3c(N)ncnc32)C1 [Compound 9, Ibrutinib]
inhibition at 0.01 µM ([1]; 0.01 uM (10 nM)): 56.2%
inhibition at 0.1 µM ([1]; 0.1 uM (100 nM)): 59.1%
inhibition at 1 µM ([1]; 1 uM (1,000 nM)): 66.1%
inhibition at 10 µM [1]: 81.4%
inhibition at 100 µM [1]: 99.9%

N#CC[C@H](C1CCCC1)n1cc(-c2ncnc3[nH]ccc23)cn1 [Compound 10, Ruxolitinib]
inhibition at 0.01 µM ([1]; 0.01 uM (10 nM)): 0.05%
inhibition at 0.1 µM ([1]; 0.1 uM (100 nM)): -5.53%
inhibition at 1 µM ([1]; 1 uM (1,000 nM)): 101%

CC[C@H](Nc1ncnc2[nH]cnc12)c1nc2cccc(F)c2c(=O)n1-c1ccccc1 [Compound 8, Idelalisib]
inhibition at 0.01 µM ([1]; 0.01 uM (10 nM)): 29.4%
inhibition at 0.1 µM ([1]; 0.1 uM (100 nM)): 48.8%
inhibition at 1 µM ([1]; 1 uM (1,000 nM)): 68.9%
inhibition at 10 µM [1]: 87.7%
inhibition at 100 µM [1]: 96.8%
Antitumor effect (%) ([2]; FIG. 3, 21 days, 10 mg/kg): 26%
Antitumor effect (%) ([2]; FIG. 12, 14 days, 10 mg/kg): 48%

CN(Cc1cnc2nc(N)nc(N)c2n1)c1ccc(C(=O)N[C@@H](CCC(=O)O)C(=O)O)cc1 [Compound 18, Methotrexate]
Inh % on TMD-8 cell line (AVG) ([1]; 0.01 uM (10 nM)): −8.45%
Inh % on TMD-8 cell line (AVG) ([1]; 0.1 uM (100 nM)): 32.04%
Inh % on TMD-8 cell line (AVG) ([1]; 1 uM (1,000 nM)): 39.55%

CO[C@H]1C[C@@H]2CC[C@@H](C)[C@@](O)(O2)C(=O)C(=O)N2CCCC[C@H]2C(=O)O[C@H]([C@H](C)C[C@@H]2CC[C@@H](O)[C@H](OC)C2)CC(=O)[C@H](C)/C=C(\C)[C@@H](O)[C@@H](OC)C(=O)[C@H](C)C[C@H](C)/C=C/C=C/C=C/1C [Compound 17, Rapamycin]
inhibition at 0.01 µM ([1]; 0.01 uM (10 nM)): 58.7%
inhibition at 0.1 µM ([1]; 0.1 uM (100 nM)): 59.8%
inhibition at 1 µM ([1]; 1 uM (1,000 nM)): 65%

Nc1cccc2c1CN(C1CCC(=O)NC1=O)C2=O (stereo not drawn) [Compound 16, Lenalidomide]
inhibition at 0.01 µM ([1]; 0.01 uM (10 nM)): 7.43%
inhibition at 0.1 µM ([1]; 0.1 uM (100 nM)): 21%
inhibition at 1 µM ([1]; 1 uM (1,000 nM)): 94.2%
Antitumor effect (%) ([2]; FIG. 4, 21 days, 10 mg/kg): 16%
Antitumor effect (%) ([2]; FIG. 4, 21 days, 30 mg/kg): 42%

Cc1cc(O)c(-c2ccc([C@@H](C)CN(C)C)cc2)c2c1[nH]c(=O)c1sccc12 [Compound 13, (R)-9-(4-(1-(dimethylamino)propan-2-yl)phenyl)-8-hydroxy-6-methylthieno[2,3-c]quinolin-4(5H)-one]
inhibition at 0.01 µM ([1]; 0.01 uM (10 nM)): 8.71%
inhibition at 0.1 µM ([1]; 0.1 uM (100 nM)): 49.1%
inhibition at 1 µM ([1]; 1 uM (1,000 nM)): 101%

C[C@@H]1C[C@H]2[C@@H]3CCC4=CC(=O)C=C[C@]4(C)[C@@]3(F)[C@@H](O)C[C@]2(C)[C@@]1(O)C(=O)CO [Dexamethasone]
Pathological score (Mean ± SEM), Total ([4]; Dexamethasone 0.2 mg/kg QD): 0.00 ± 0.00
Pathological score (Mean ± SEM), Bone resorption [4, 5]: 0.00 ± 0.00
Pathological score (Mean ± SEM), Cartilage injury [4, 5]: 0.00 ± 0.00
Pathological score (Mean ± SEM), Inflammatory cell infiltration [4, 5]: 0.00 ± 0.00
Pathological score (Mean ± SEM), Pannus growth [4, 5]: 0.00 ± 0.00
Pathological score (Mean ± SEM), Bone resorption [4, 6]: 0.00 ± 0.00
Pathological score (Mean ± SEM), Cartilage injury [4, 6]: 0.00 ± 0.00
Pathological score (Mean ± SEM), Inflammatory cell infiltration [4, 6]: 0.00 ± 0.00
Pathological score (Mean ± SEM), Pannus growth [4, 6]: 0.00 ± 0.00
Clinical Score (Mean) ([4]; day 21): 0.00
Clinical Score (Mean) ([4]; day 32): 0.60***
Clinical Score (Mean) ([4]; day 39): 0.40***
Clinical Score (Mean) ([4]; day 42): 0.20***
